# Patent US6737383B1, “Herbicidal oxadiazolidines” (priority 1999, dated 2004)
# Tests used:
# bedstraw = assay: Test B pre/postemergence bedstraw; assay type: in vivo, Galium aparine
# Procedure, shortened: (§1)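 Herbicidal effect was estimated by eye on a ten-point control scale after plants spent twelve to sixteen days in a greenhouse following soil or foliar treatment. Foliar sprays targeted plants at one to four leaves; all doses were formulated in a non-phytotoxic solvent with surfactant.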
# blackgrass = assay: Test B pre/postemergence blackgrass; assay type: in vivo, Alopecurus myosuroides
# Procedure, shortened: as §1
# surinam grass = assay: Test B pre/postemergence surinam grass; assay type: in vivo, Brachiaria decumbens
# Procedure, shortened: as §1
# corn = assay: Test B pre/postemergence corn; assay type: in vivo, Zea mays
# Procedure, shortened: as §1
# crabgrass = assay: Test B pre/postemergence crabgrass; assay type: in vivo, Digitaria sanguinalis
# Procedure, shortened: as §1
# pigweed = assay: Test B pre/postemergence pigweed; assay type: in vivo, Amaranthus retroflexus
# Procedure, shortened: as §1
# rape = assay: Test B pre/postemergence rape; assay type: in vivo, Brassica napus
# Procedure, shortened: as §1
# soybean = assay: Test B pre/postemergence soybean; assay type: in vivo, Glycine max
# Procedure, shortened: as §1
# sugar beet = assay: Test B pre/postemergence sugar beet; assay type: in vivo, Beta vulgaris
# Procedure, shortened: as §1
# velvetleaf = assay: Test B pre/postemergence velvetleaf; assay type: in vivo, Abutilon theophrasti
# Procedure, shortened: as §1
# wheat = assay: Test B pre/postemergence wheat; assay type: in vivo, Triticum aestivum
# Procedure, shortened: as §1
# wild oat = assay: Test B pre/postemergence wild oat; assay type: in vivo, Avena fatua
# Procedure, shortened: as §1
# purple nutsedge = assay: Test B pre/postemergence purple nutsedge; assay type: in vivo, Cyperus rotundus
# Procedure, shortened: as §1
# rice = assay: Test B flood test rice; assay type: in vivo, Oryza sativa
# Procedure, shortened: (§2)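 Each value is a visual injury score relative to controls, with 10 meaning complete control and 0 no effect. Evaluation took place twelve to sixteen days after the 2-leaf-stage plants were treated and kept in the greenhouse.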
# smallflower flatsedge = assay: Test B flood test smallflower flatsedge; assay type: in vivo, Cyperus difformis
# Procedure, shortened: as §2
# duck salad = assay: Test B flood test duck salad; assay type: in vivo, Heteranthera limosa
# Procedure, shortened: as §2
# [1] = Preemergence, Rate 62 g/ha, scale of 0 to 10 where 0 is no effect and 10 is complete control
# [2] = Preemergence, Rate 250 g/ha, scale of 0 to 10 where 0 is no effect and 10 is complete control
# [3] = Preemergence, Rate 500 g/ha, scale of 0 to 10 where 0 is no effect and 10 is complete control
# [4] = Rate 62 g/ha, Postemergence, scale of 0 to 10 where 0 is no effect and 10 is complete control
# [5] = Rate 125 g/ha, Postemergence, scale 0 to 10
# [6] = Rate 125 g/ha, Preemergence, scale of 0 to 10 where 0 is no effect and 10 is complete control
# [7] = Rate 500 g/ha, Postemergence, scale 0 to 10, 0 no effect, 10 complete control
# [8] = Rate 125 g/ha, Postemergence, scale 0 (no effect) to 10 (complete control)
# [9] = Rate 62 g/ha, headed Pre-emergence (flood test species), scale 0 to 10 (0 no effect, 10 complete control)
# [10] = Rate 125 g/ha, Pre-emergence, flood test species, scale 0 to 10 where 0 is no effect and 10 is complete control
# [11] = Rate 250 g/ha, Pre-emergence, flood-test species, scale 0 to 10, 0 is no effect, 10 is complete control
# [12] = Rate 500 g/ha, Pre-emergence, flood test species, scale 0 to 10 (0 no effect, 10 complete control)
compound,measurement,setting,value
Cc1ccccc1-n1c(=O)on(C(=O)N(c2ccc(F)cc2)C(C)C2CC2)c1=O (stereo not shown) [Compound 240],Bedstraw plant response rating,bedstraw; [1],0
same,Bedstraw plant response rating,bedstraw; [2],0
same,"Plant response rating, Bedstraw",bedstraw; [3],0
same,Bedstraw plant response rating,bedstraw; [4],0
same,Bedstraw plant response rating,bedstraw; [5],3
same,Bedstraw plant response rating,bedstraw; [6],0
same,"Plant response rating (0 to 10; 0 is no effect, 10 is complete control), Bedstraw","bedstraw; Rate 250 g/ha, Postemergence",3
same,Bedstraw plant response rating,bedstraw; [7],5
same,Blackgrass plant response rating,blackgrass; [1],0
same,Blackgrass plant response rating,blackgrass; [2],0
same,"Plant response rating, Blackgrass",blackgrass; [3],2
same,Blackgrass plant response rating,blackgrass; [4],0
same,Blackgrass plant response rating,blackgrass; [5],0
same,Blackgrass plant response rating,blackgrass; [6],0
same,"Plant response rating (0 to 10; 0 is no effect, 10 is complete control), Blackgrass","blackgrass; Rate 250 g/ha, Postemergence",0
same,Blackgrass plant response rating,blackgrass; [7],5
same,B. signalgrass plant response rating,surinam grass; [1],0
same,B. signalgrass plant response rating,surinam grass; [2],0
same,"Plant response rating, B. signalgrass",surinam grass; [3],3
same,B. signalgrass plant response rating,surinam grass; [4],0
same,B. signalgrass plant response rating,surinam grass; [8],0
same,B. signalgrass plant response rating,surinam grass; [6],0
same,"Plant response rating (0 to 10; 0 is no effect, 10 is complete control), B. signalgrass","surinam grass; Rate 250 g/ha, Postemergence",0
same,B. signalgrass plant response rating,surinam grass; [7],0
same,Corn plant response rating,corn; [1],0
same,Corn plant response rating,corn; [2],0
same,"Plant response rating, Corn",corn; [3],0
same,Corn plant response rating,corn; [4],0
same,Corn plant response rating,corn; [5],0
same,Corn plant response rating,corn; [6],0
same,"Plant response rating (0 to 10; 0 is no effect, 10 is complete control), Corn","corn; Rate 250 g/ha, Postemergence",0
same,Corn plant response rating,corn; [7],0
same,Crabgrass plant response rating,crabgrass; [1],2
same,Crabgrass plant response rating,crabgrass; [2],9
same,"Plant response rating, Crabgrass",crabgrass; [3],9
same,Crabgrass plant response rating,crabgrass; [4],0
same,Crabgrass plant response rating,crabgrass; [6],4
same,"Plant response rating (0 to 10; 0 is no effect, 10 is complete control), Crabgrass","crabgrass; Rate 250 g/ha, Postemergence",2
same,Crabgrass plant response rating,crabgrass; [7],4
same,Redroot pigweed plant response rating,pigweed; [1],0
same,Redroot pigweed plant response rating,pigweed; [2],0
same,"Plant response rating, Redroot pigweed",pigweed; [3],0
same,Redroot pigweed plant response rating,pigweed; [4],0
same,Redroot pigweed plant response rating,pigweed; [6],0
same,"Plant response rating (0 to 10; 0 is no effect, 10 is complete control), Redroot pigweed","pigweed; Rate 250 g/ha, Postemergence",2
same,Redroot pigweed plant response rating,pigweed; [7],7
same,Rape plant response rating,rape; [1],0
same,Rape plant response rating,rape; [2],0
same,"Plant response rating, Rape",rape; [3],0
same,Rape plant response rating,rape; [4],0
same,Rape plant response rating,rape; [6],0
same,"Plant response rating (0 to 10; 0 is no effect, 10 is complete control), Rape","rape; Rate 250 g/ha, Postemergence",0
same,Rape plant response rating,rape; [7],0
same,Soybean plant response rating,soybean; [1],0
same,Soybean plant response rating,soybean; [2],0
same,"Plant response rating, Soybean",soybean; [3],0
same,Soybean plant response rating,soybean; [4],0
same,Soybean plant response rating,soybean; [6],0
same,Soybean plant response rating,soybean; [7],3
same,Sugarbeets plant response rating,sugar beet; [1],0
same,Sugarbeets plant response rating,sugar beet; [2],0
same,"Plant response rating, Sugarbeets",sugar beet; [3],0
same,Sugarbeets plant response rating,sugar beet; [4],0
same,Sugarbeets plant response rating,sugar beet; [6],0
same,Sugarbeets plant response rating,sugar beet; [7],3
same,Velvetleaf plant response rating,velvetleaf; [1],0
same,Velvetleaf plant response rating,velvetleaf; [2],0
same,"Plant response rating, Velvetleaf",velvetleaf; [3],2
same,Velvetleaf plant response rating,velvetleaf; [4],0
same,Velvetleaf plant response rating,velvetleaf; [6],0
same,Velvetleaf plant response rating,velvetleaf; [7],3
same,Wheat plant response rating,wheat; [1],0
same,Wheat plant response rating,wheat; [2],0
same,"Plant response rating, Wheat",wheat; [3],0
same,Wheat plant response rating,wheat; [4],0
same,Wheat plant response rating,wheat; [6],0
same,Wheat plant response rating,wheat; [7],2
same,Wild oats plant response rating,wild oat; [1],0
same,Wild oats plant response rating,wild oat; [2],0
same,"Plant response rating, Wild oats",wild oat; [3],0
same,Wild oats plant response rating,wild oat; [4],0
same,Wild oats plant response rating,wild oat; [6],0
same,Wild oats plant response rating,wild oat; [7],2
same,Nutsedge plant response rating,purple nutsedge; [2],0
same,Nutsedge plant response rating,purple nutsedge; [4],0
same,"Plant response rating (0 to 10; 0 is no effect, 10 is complete control), Nutsedge","purple nutsedge; Rate 250 g/ha, Postemergence",0
same,Nutsedge plant response rating,purple nutsedge; [7],0
same,Rice plant response rating,rice; [9],0
same,Rice plant response rating,rice; [10],0
same,Rice plant response rating,rice; [11],0
same,Rice plant response rating,rice; [12],0
same,S. Flatsedge plant response rating,smallflower flatsedge; [9],0
same,S. Flatsedge plant response rating,smallflower flatsedge; [10],0
same,S. Flatsedge plant response rating,smallflower flatsedge; [11],0
same,S. Flatsedge plant response rating,smallflower flatsedge; [12],0
same,Ducksalad plant response rating,duck salad; [9],0
same,Ducksalad plant response rating,duck salad; [10],0
same,Ducksalad plant response rating,duck salad; [11],0
same,Ducksalad plant response rating,duck salad; [12],0
CC(C)N(C(=O)n1oc(=O)n(C2CC2)c1=O)c1ccc(Cl)cc1 [Compound 241],Bedstraw plant response rating,bedstraw; [2],7
same,"Plant response rating, Bedstraw",bedstraw; [3],10
same,Bedstraw plant response rating,bedstraw; [4],0
same,Bedstraw plant response rating,bedstraw; [5],3
same,Bedstraw plant response rating,bedstraw; [6],0
same,"Plant response rating (0 to 10; 0 is no effect, 10 is complete control), Bedstraw","bedstraw; Rate 250 g/ha, Postemergence",7
same,Bedstraw plant response rating,bedstraw; [7],7
same,Blackgrass plant response rating,blackgrass; [1],6
same,Blackgrass plant response rating,blackgrass; [2],7
same,"Plant response rating, Blackgrass",blackgrass; [3],10
same,Blackgrass plant response rating,blackgrass; [4],3
same,Blackgrass plant response rating,blackgrass; [5],7
same,Blackgrass plant response rating,blackgrass; [6],6
same,"Plant response rating (0 to 10; 0 is no effect, 10 is complete control), Blackgrass","blackgrass; Rate 250 g/ha, Postemergence",8
same,Blackgrass plant response rating,blackgrass; [7],9
same,B. signalgrass plant response rating,surinam grass; [1],0
same,B. signalgrass plant response rating,surinam grass; [2],4
same,"Plant response rating, B. signalgrass",surinam grass; [3],4
same,B. signalgrass plant response rating,surinam grass; [4],0
same,B. signalgrass plant response rating,surinam grass; [8],2
same,B. signalgrass plant response rating,surinam grass; [6],2
same,"Plant response rating (0 to 10; 0 is no effect, 10 is complete control), B. signalgrass","surinam grass; Rate 250 g/ha, Postemergence",4
same,B. signalgrass plant response rating,surinam grass; [7],6
same,Corn plant response rating,corn; [1],0
same,Corn plant response rating,corn; [2],0
same,"Plant response rating, Corn",corn; [3],5
same,Corn plant response rating,corn; [4],0
same,Corn plant response rating,corn; [5],0
same,Corn plant response rating,corn; [6],0
same,"Plant response rating (0 to 10; 0 is no effect, 10 is complete control), Corn","corn; Rate 250 g/ha, Postemergence",0
same,Corn plant response rating,corn; [7],0
same,Crabgrass plant response rating,crabgrass; [1],3
same,Crabgrass plant response rating,crabgrass; [2],10
same,"Plant response rating, Crabgrass",crabgrass; [3],10
same,Crabgrass plant response rating,crabgrass; [4],2
same,Crabgrass plant response rating,crabgrass; [6],7
same,"Plant response rating (0 to 10; 0 is no effect, 10 is complete control), Crabgrass","crabgrass; Rate 250 g/ha, Postemergence",8
same,Crabgrass plant response rating,crabgrass; [7],9
same,Redroot pigweed plant response rating,pigweed; [1],0
same,Redroot pigweed plant response rating,pigweed; [2],9
same,"Plant response rating, Redroot pigweed",pigweed; [3],10
same,Redroot pigweed plant response rating,pigweed; [4],0
same,Redroot pigweed plant response rating,pigweed; [6],0
same,"Plant response rating (0 to 10; 0 is no effect, 10 is complete control), Redroot pigweed","pigweed; Rate 250 g/ha, Postemergence",0
same,Redroot pigweed plant response rating,pigweed; [7],7
same,Rape plant response rating,rape; [1],0
same,Rape plant response rating,rape; [2],5
same,"Plant response rating, Rape",rape; [3],9
same,Rape plant response rating,rape; [4],0
same,Rape plant response rating,rape; [6],0
same,"Plant response rating (0 to 10; 0 is no effect, 10 is complete control), Rape","rape; Rate 250 g/ha, Postemergence",2
same,Rape plant response rating,rape; [7],4
same,Soybean plant response rating,soybean; [1],0
same,Soybean plant response rating,soybean; [2],0
same,"Plant response rating, Soybean",soybean; [3],4
same,Soybean plant response rating,soybean; [4],1
same,Soybean plant response rating,soybean; [6],0
same,Soybean plant response rating,soybean; [7],4
same,Sugarbeets plant response rating,sugar beet; [1],0
same,Sugarbeets plant response rating,sugar beet; [2],6
same,"Plant response rating, Sugarbeets",sugar beet; [3],6
same,Sugarbeets plant response rating,sugar beet; [4],0
same,Sugarbeets plant response rating,sugar beet; [6],0
same,Sugarbeets plant response rating,sugar beet; [7],5
same,Velvetleaf plant response rating,velvetleaf; [1],2
same,Velvetleaf plant response rating,velvetleaf; [2],5
same,"Plant response rating, Velvetleaf",velvetleaf; [3],7
same,Velvetleaf plant response rating,velvetleaf; [4],2
same,Velvetleaf plant response rating,velvetleaf; [6],5
same,Velvetleaf plant response rating,velvetleaf; [7],1
same,Wheat plant response rating,wheat; [1],0
same,Wheat plant response rating,wheat; [2],3
same,"Plant response rating, Wheat",wheat; [3],5
same,Wheat plant response rating,wheat; [4],0
same,Wheat plant response rating,wheat; [6],0
same,Wheat plant response rating,wheat; [7],8
same,Wild oats plant response rating,wild oat; [1],3
same,Wild oats plant response rating,wild oat; [2],8
same,"Plant response rating, Wild oats",wild oat; [3],8
same,Wild oats plant response rating,wild oat; [4],0
same,Wild oats plant response rating,wild oat; [6],5
same,Wild oats plant response rating,wild oat; [7],2
same,Nutsedge plant response rating,purple nutsedge; [2],10
same,"Plant response rating, Nutsedge",purple nutsedge; [3],10
same,Nutsedge plant response rating,purple nutsedge; [4],0
same,Nutsedge plant response rating,purple nutsedge; [6],0
same,"Plant response rating (0 to 10; 0 is no effect, 10 is complete control), Nutsedge","purple nutsedge; Rate 250 g/ha, Postemergence",0
same,Nutsedge plant response rating,purple nutsedge; [7],6
same,Rice plant response rating,rice; [9],0
same,Rice plant response rating,rice; [10],0
same,Rice plant response rating,rice; [11],0
same,Rice plant response rating,rice; [12],0
same,S. Flatsedge plant response rating,smallflower flatsedge; [9],0
same,S. Flatsedge plant response rating,smallflower flatsedge; [10],0
same,S. Flatsedge plant response rating,smallflower flatsedge; [11],0
same,S. Flatsedge plant response rating,smallflower flatsedge; [12],0
same,Ducksalad plant response rating,duck salad; [9],0
same,Ducksalad plant response rating,duck salad; [10],0
same,Ducksalad plant response rating,duck salad; [11],0
same,Ducksalad plant response rating,duck salad; [12],0
